The assay concerns CGS-21680 induced catalepsy. Put plainly: Acute CGS-21680 induced catalepsy test. The class given is in vivo, rat. As to conditions: for effect on catalepsy time in acute CGS-21680 induced catalepsy model: i.p. in DMSO, 0.1-10 mg/kg. As to the method:
Animals were administered with Reserpine or CGS-21680 according to methods known to the skilled person in the art. These models and procedures are e.g. described by Ferré S. et al., Neurosci. Let., 1991, 130, 162; Ferré S. et al., Neuroscience, 1992, 51, 501; Kafka S. H. et al., Eur. J. Pharmacol., 1996, 295, 147; Rimondini R. et al., Neuropsychopharmacology, 1997, 17, 82 and are herein incorporated by reference. In the acute CGS-21680 induced catalepsy model (CGS model) the test compounds (TC, compounds according to the present invention) and CGS-21680 (i.p. 2 mg/kg) were administered 60 minutes before the start of the catalepsy bar measurement and behavioural testing described below (see also FIG. 1). In the acute Reserpine induced catalepsy model (RES model Resperine (subcutaneously, 3 mg/kg) was injected 24 h prior to the test compound application. Catalepsy bar measurement took place 60 minutes after test compound application (see FIG. 1). Test compounds were administered i.p. in DMSO in following doses (mg/kg): 0.1, 0.3, 1, 3, 10.
Dimethylsulfoxide (DMSO) was used as vehicle for the test compounds and Reserpine. Reserpine was dissolved in DMSO in a concentration of 3 mg/ml. A 10% (w/v) Cyclodextrin solution was used as vehicle for CGS-21680. CGS 21680 was dissolved in 10% (w/v) Cyclodextrine in a concentration of 2 mg/ml.
Caffeine was used as a reference compound in the CGS-21680 induced catalepsy model. A caffeine solution was prepared with water for injection purposes to a concentration of 30 mg/ml. The solution was administered intraperitoneally in a volume of 1 ml/kg (30 mg/kg) 30 minutes before the beginning of testing and after CGS-21680 pre-treatment (1 hour prior to testing).
The catalepsy bar after CGS-21680 administration was measured (CAT) as follows: The rat was placed with its forepaws on a log of wood. […] If the animal descended faster than 1 second, the trial was regarded as invalid. If more than 20 trials were rated as invalid, the values of all uncompleted trials were noted as 0. The animal was tested until five trials had been completed and the time for each trial was noted. Only the values of the last three trials were used for the analysis. The following parameters were calculated: maximum time to descend (s) and median time to descend (s).
Behavioural observation (BO) included the measurement of the body tone, inclined plane and grip strength.
The rat is taken in the hand of the observer and the animal's body tone is rated as normal, soft or hard. The rating is performed immediately after taking the animal from its home cage before performance of catalepsy testing. The following parameters were calculated: mean occurrence of hard body tone and mean occurrence of soft body tone.
The rat is horizontally placed to an inclined plane for a maximum time of 30 seconds. Time to reach bottom or top is measured. […] The test is performed after catalepsy testing. Time to leave the inclined plane(s) was measured.
The rat is put on a grip and the observer pulls the animal back on his tail. The strength (fore paws and hind paws) by which it holds on the grid is scored as grasping and pulling, grasping without pulling or no grasping. The test is performed after the inclined plane test. The following parameters were calculated: mean score of fore paw grip strength and mean score of hind paw grip strength.
All statistical tests were performed two tailed with a value of p<0.05 considered as significant.
To assess the effects of CGS-21680 and Reserpine pre-treatment compared to vehicle treated controls statistical comparisons between the test groups were performed using a U test statistic.
To assess the effects of test compounds on CGS-21680 and Reserpine pre-treated animals correlation analyses including animals from test groups and the respective test compound-treated groups were performed. […]

[1] abbreviates: vs only CGS-21680-treated animals.

Molecules are shown by their SMILES. “Also recorded” adds a separate entry of the source.

Turning to `C#CCn1c(=O)c2c(nc(C#Cc3ccc(OC)c(OC)c3)n2C)n(CCCO)c1=O` [test compound 2, 3-(3-hydroxypropyl)-8-(3,4-dimethoxyphenylethynyl)-7-methyl-1-prop-2-ynyl-3,7-dihydropurine-2,6-dione], the “effect on catalepsy time in acute CGS-21680 induced catalepsy model” value is given as “reduced catalepsy time; also recorded: reduction of catalepsy time; also recorded: significant effects”. The “any other parameter measured after CGS-21680 treatment” value (parameters other than body tone) was “no significant effects”. Further, under setting [1], the “hard body tone after CGS-21680 treatment” value is “significantly increased” and the “soft body tone after CGS-21680 treatment” value is listed as “decreased”.
Regarding `C#CCn1c(=O)c2c(nc(C#Cc3ccc(OC)c(OC)c3)n2C)n(CC)c1=O` [test compound 1, 3-ethyl-8-(3,4-dimethoxyphenylethynyl)-7-methyl-1-prop-2-ynyl-3,7-dihydropurine-2,6-dione], the “effect on catalepsy time in acute CGS-21680 induced catalepsy model” value is reported as “significantly reduced catalepsy time; also recorded: significant reduction of catalepsy time; also recorded: significant effects”. Moreover, under setting [1], the “grip strength after CGS-21680 treatment” value is on record as “higher amount of grip strength”, the “hard body tone after CGS-21680 treatment” value is listed as “significantly increased”, the “maximum catalepsy values after CGS-21680 treatment” value is “decreased” and the “median catalepsy values after CGS-21680 treatment” value was “decreased”. Moreover, the “soft body tone after CGS-21680 treatment” value under setting [1] was “decreased”.

The values above are taken from patent US20080221134A1, “8-ALKYNYLXANTHINES AND DERIVATIVES” (priority 2006, published 2008).
